Patent US10106515B2, “1-(cyclopent-2-en-1-yl)-3-(2-hydroxy-3-(arylsulfonyl)phenyl)urea derivatives as CXCR2 inhibitors” (GLAXOSMITHKLINE INTELLECTUAL PROPERTY DEVELOPMENT LIMITED, priority 2014, dated 2018)
Structures can show the parent of a compound that is named as a salt.

Columns and labels:
recombinant human CXCR2 = target: T1, recombinant human CXCR2 (Homo sapiens, UniProt P25025); assay: CXCR2 Tango assay; format: cell-based; conditions: mean pIC50 of multiple test results; stimulated with 80 nM hCXCL1; reporter gene blue/green emission ratio; read-out: pIC50 (CXCR2 Tango assay) (converted)
T1 construct: TEV protease site; Gal4-VP16 transcription factor
T1 sequence (P25025 1-360): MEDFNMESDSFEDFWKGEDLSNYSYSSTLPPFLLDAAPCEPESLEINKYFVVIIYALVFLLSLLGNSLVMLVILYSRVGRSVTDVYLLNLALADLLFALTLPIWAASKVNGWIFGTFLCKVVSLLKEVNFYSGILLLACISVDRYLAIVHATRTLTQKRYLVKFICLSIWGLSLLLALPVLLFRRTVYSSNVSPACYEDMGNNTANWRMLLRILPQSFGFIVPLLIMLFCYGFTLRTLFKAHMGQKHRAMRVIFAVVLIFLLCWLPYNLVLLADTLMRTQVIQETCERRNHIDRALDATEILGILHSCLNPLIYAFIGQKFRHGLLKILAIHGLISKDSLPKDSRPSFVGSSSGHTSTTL
How it was run: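 A stable cell line carries human CXCR2 fused to a TEV site and Gal4-VP16, with protease-tagged arrestin. Cells (~10,000/well) were stimulated overnight at 37 °C with 80 nM hCXCL1 and a 10-point compound dilution. CCF4-AM beta-lactamase FRET (460/530 nm ratio) was read, normalized to hCXCL1 and DMSO, and mean pIC50 reported.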

[1] = tested on: upregulation of CD11b in GROα stimulated neutrophils in human whole blood; assay: Human whole blood assay (CD11b upregulation); format: cell-based; conditions: Neutrophil, inhibition of CD11b upregulation, GROα 33 nM final, flow cytometry, read-out: pIC50 (human whole blood assay) (converted)
Experimental: The whole blood assay tested the compounds' ability to inhibit the upregulation of CD11b in GROα stimulated neutrophils in human whole blood.
Blood was withdrawn by venipuncture from consented adults and poured into a Sterilin tube containing an anti-coagulant Heparin (10 uL/mL of blood). All the test compounds were dissolved in DMSO to 4 mM and serial diluted across the plate, 1 in 3 to provide 10 point dose response curves. The compounds were then diluted 100 fold in -PBS [Phosphate buffered saline (without Calcium Chloride and Magnesium Chloride)] after which, 1 uL was dispensed in 96 U bottom Costar plates using an FX.
10 uL of blood was transferred to the compound plate using a multi-channel pipette, gently tapped and incubated for 15 minutes, at 37° C. After 15 minutes, the stimulant GROα was diluted to 100 nM in 0.1% BSA (Albumin Bovine Serum)-PBS and 5 uL is dispensed across the whole plate for a final concentration of 33 nM. The plate was gently tapped and incubated further for 15 minutes at 37° C. The plate was placed on ice for 1 minute before addition of 10 uL of an antibody cocktail consisting of CD11b-FITC (40 ug/mL) purchased from BioLegend (address: Cambridge Bioscience, Munro House, Trafalgar Way, Bar Hill, Cambridge, UK) and CD16-PE purchased from BD Pharmingen (address: The Danby Building, Edmung Halley Road, Oxford Science Park, Oxford, UK) (stock concentration 100 tests, 2 mL stock volume is diluted 1 in 5). The plate was placed on ice for 1 hour in the dark. The cells were then fixed using 200 uL/well of 1×FACS (Flow Activated Cell Sorting) Lyse solution (Becton and Dickinson-BD) and on ice for 20 minutes in the dark. The plate was centrifuged at 1600 rpm for 5 minutes and re-suspended with 200 uL of ice cold PBS. This step was repeated twice and on the final step the plate was re-suspended with 50 uL of ice cold -PBS for flow Cytometric analysis.
Samples were run on a Becton and Dickinson (BD)-Acurri C6 Flow Cytometer using a HyperCyt sampling apparatus (IntelliCyt) with a flow rate 2 uL/sec. CD11b upregulation is monitored in neutrophils and identified using a combination of both side scatter and CD16 expression.

| SMILES | IC50 (recombinant human CXCR2) | IC50 [1] |
| --- | --- | --- |
| CC1=CCCC1NC(=O)Nc1ccc(Cl)c(S(=O)(=O)C2(C)CCOCC2)c1O (stereo not drawn) [Compound 107, 1-(4-chloro-2-hydroxy-3-((4-methyltetrahydro-2H-pyran-4-yl)sulfonyl)phenyl)-3-(2-methylcyclopent-2-en-1-yl)urea] | ≤ 10 nM | 25.1 to 2510 nM |
| CC1=CCCC1NC(=O)Nc1ccc(Cl)c(S(=O)(=O)C2CCOCC2)c1O (stereo not drawn) [Compound 110, 1-(4-chloro-2-hydroxy-3-((tetrahydro-2H-pyran-4-yl)sulfonyl)phenyl)-3-(2-methylcyclopent-2-en-1-yl)ureac] | ≤ 10 nM | 25.1 to 2510 nM |
| CC1=CCCC1NC(=O)Nc1ccc(Cl)c(S(=O)(=O)N2CC(F)C2)c1O (stereo not drawn) [Compound 112, 1-(4-chloro-3-((3-fluoroazetidin-1-yl)sulfonyl)-2-hydroxyphenyl)-3-(2-methylcyclopent-2-en-1-yl)urea] | ≤ 10 nM | 25.1 to 2510 nM |
| CC1=CCCC1NC(=O)Nc1ccc(Cl)c(S(=O)(=O)N2CCC(F)(F)C2)c1O (stereo not drawn) [Compound 114, 1-(4-chloro-3-((3,3-difluoropyrrolidin-1-yl)sulfonyl)-2-hydroxyphenyl)-3-(2-methylcyclopent-2-en-1-yl)urea, trifluoroacetic acid salt] | ≤ 10 nM | 25.1 to 2510 nM |
| CCC1(S(=O)(=O)c2c(Cl)ccc(NC(=O)N[C@@H]3CCC=C3C)c2O)CCOCC1 [Compound 119, (R)-1-(4-chloro-3-((4-ethyltetrahydro-2H-pyran-4-yl)sulfonyl)-2-hydroxyphenyl)-3-(2-methylcyclopent-2-en-1-yl)urea] | ≤ 1 nM | 25.1 to 2510 nM |
| COC[C@@H](C)S(=O)(=O)c1c(Cl)ccc(NC(=O)N[C@@H]2CCC=C2C)c1O [Compound 122, 1-(4-chloro-2-hydroxy-3-(((R)-1-methoxypropan-2-yl)sulfonyl)phenyl)-3-((R)-2-methylcyclopent-2-en-1-yl)urea] | ≤ 1 nM | 25.1 to 2510 nM |
| CC1=CCC[C@H]1NC(=O)Nc1ccc(C#N)c(S(=O)(=O)C(C)(C)F)c1O [Compound 123, (R)-1-(4-cyano-3-((2-fluoropropan-2-yl)sulfonyl)-2-hydroxyphenyl)-3-(2-methylcyclopent-2-en-1-yl)urea] | ≤ 1 nM | 25.1 to 2510 nM |
| CC1=CCC[C@H]1NC(=O)Nc1ccc(Cl)c(S(=O)(=O)C(F)(F)CN(C)C)c1O [Compound 136, (R)-1-(4-chloro-3-((2-(dimethylamino)-1,1-difluoroethyl)sulfonyl)-2-hydroxyphenyl)-3-(2-methylcyclopent-2-en-1-yl)urea] | ≤ 10 nM | 25.1 to 2510 nM |
| CC1=CCC[C@H]1NC(=O)Nc1ccc(Cl)c(S(=O)(=O)N2CCN(C)CC2)c1O [Compound 141, (R)-1-(4-chloro-2-hydroxy-3-((4-methylpiperazin-1-yl)sulfonyl)phenyl)-3-(2-methylcyclopent-2-en-1-yl)urea, trifluoroacetic acid salt] | ≤ 10 nM | 25.1 to 2510 nM |
| CC1=CCCC1NC(=O)Nc1ccc(Cl)c(S(=O)(=O)N2CCN(C)CC2)c1O (stereo not drawn) [Compound 142, 1-(4-chloro-2-hydroxy-3-((4-methylpiperazin-1-yl)sulfonyl)phenyl)-3-(2-methylcyclopent-2-en-1-yl)urea, trifluoroacetic acid salt] | ≤ 10 nM | 25.1 to 2510 nM |
| CO[C@H]1C[C@@H](S(=O)(=O)c2c(Cl)ccc(NC(=O)N[C@@H]3CCC=C3C)c2O)C1 [Compound 146, 1-(4-chloro-2-hydroxy-3-((cis-3-methoxycyclobutyl)sulfonyl)phenyl)-3-((R)-2-methylcyclopent-2-en-1-yl)urea] | ≤ 1 nM | 25.1 to 2510 nM |
| CO[C@H]1COC[C@@H]1S(=O)(=O)c1c(Cl)ccc(NC(=O)N[C@@H]2CCC=C2C)c1O [Compound 151, 1-(4-chloro-2-hydroxy-3-(((3S,4S)-4-methoxytetrahydro-furan-3-yl)sulfonyl)phenyl)-3-((R)-2-methylcyclopent-2-en-1-yl)urea] | ≤ 10 nM | 25.1 to 2510 nM |
